Assay results: ChEMBL document CHEMBL5678816, “A Next-Generation TRK Kinase Inhibitor Overcomes Acquired Resistance to Prior TRK Kinase Inhibition in Patients with TRK Fusion-Positive Solid Tumors” (Cancer Discov, 2017)
The source made the active and inactive calls. No cut-off for these calls is given here.

Key:
[1] = test system: SK-N-FI; experiment: Inhibition of cell proliferation in human SK-N-FI cells upto 10 umol/L incubated for 72 hrs by DAPI staining based analysis; format: functional; conditions: dose <= 10.0 µmol/L
[2] = biological target: RAC-beta serine/threonine-protein kinase (Homo sapiens) (UniProt P31751); experiment: Inhibition of AKT2 (unknown origin) at 1 uM in presence of ATP relative to control; values are per cent of control
[3] = biological target: Serine/threonine-protein kinase Nek2 (Homo sapiens) (UniProt P51955); experiment: Inhibition of NEK2 (unknown origin) at 1 uM in presence of ATP relative to control; values are per cent of control
[4] = test system: SCC-9; experiment: Inhibition of cell proliferation in human SCC-9 cells upto 10 umol/L incubated for 72 hrs by DAPI staining based analysis; format: functional; conditions: dose <= 10.0 µmol/L
[5] = biological target: Ephrin type-A receptor 7 (Homo sapiens) (UniProt Q15375); experiment: Inhibition of EphA7 (unknown origin) at 1 uM in presence of ATP relative to control; values are per cent of control
Chain of Ephrin type-A receptor 7 (Homo sapiens) (Q15375 28-998 limits assumed): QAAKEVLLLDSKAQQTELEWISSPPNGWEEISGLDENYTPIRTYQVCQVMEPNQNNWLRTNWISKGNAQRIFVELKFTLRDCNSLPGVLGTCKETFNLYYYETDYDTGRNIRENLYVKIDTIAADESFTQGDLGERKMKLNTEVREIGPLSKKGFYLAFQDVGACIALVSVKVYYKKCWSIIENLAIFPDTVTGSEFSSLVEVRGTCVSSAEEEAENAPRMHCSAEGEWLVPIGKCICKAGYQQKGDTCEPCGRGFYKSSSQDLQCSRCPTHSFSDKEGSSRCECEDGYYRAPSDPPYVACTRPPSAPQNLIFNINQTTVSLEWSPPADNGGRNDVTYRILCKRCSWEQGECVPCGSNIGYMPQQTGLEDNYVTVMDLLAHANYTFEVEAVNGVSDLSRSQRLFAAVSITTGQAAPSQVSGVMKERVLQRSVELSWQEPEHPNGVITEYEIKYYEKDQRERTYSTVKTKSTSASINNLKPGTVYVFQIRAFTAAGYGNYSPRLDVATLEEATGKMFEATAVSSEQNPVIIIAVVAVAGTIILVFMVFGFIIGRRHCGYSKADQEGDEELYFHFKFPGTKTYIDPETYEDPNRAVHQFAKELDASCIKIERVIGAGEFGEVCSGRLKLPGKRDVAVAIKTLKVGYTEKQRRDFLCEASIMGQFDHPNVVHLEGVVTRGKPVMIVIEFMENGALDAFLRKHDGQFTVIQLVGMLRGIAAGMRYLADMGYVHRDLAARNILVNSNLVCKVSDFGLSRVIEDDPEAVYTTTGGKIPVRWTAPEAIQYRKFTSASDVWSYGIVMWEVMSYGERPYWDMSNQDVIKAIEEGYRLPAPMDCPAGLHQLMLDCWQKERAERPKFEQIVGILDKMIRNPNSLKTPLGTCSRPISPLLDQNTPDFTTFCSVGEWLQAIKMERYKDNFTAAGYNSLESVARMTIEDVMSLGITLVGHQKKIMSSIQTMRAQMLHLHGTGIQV

[6] = Cmin in pediatric patient with recurrent ETV6-NTRK3-rearranged infantile fibrosarcoma at 60 mg administered twice a day as liquid formulation for 29 day and measured 12 hrs post dose by LC-MS/MS analysis; format: ADME; conditions: human, in vivo, read-out: Cmin
[7] = species: Homo sapiens; experiment: Inhibition of CK1_y (unknown origin) at 1 uM in presence of ATP relative to control; values are per cent of control
[8] = biological target: LIM domain kinase 1 (Homo sapiens) (UniProt P53667); experiment: Inhibition of LIMK1 (unknown origin) at 1 uM in presence of ATP relative to control; values are per cent of control
Chain of LIM domain kinase 1 (Homo sapiens) (P53667 whole entry, looked up, the tested form may be a part): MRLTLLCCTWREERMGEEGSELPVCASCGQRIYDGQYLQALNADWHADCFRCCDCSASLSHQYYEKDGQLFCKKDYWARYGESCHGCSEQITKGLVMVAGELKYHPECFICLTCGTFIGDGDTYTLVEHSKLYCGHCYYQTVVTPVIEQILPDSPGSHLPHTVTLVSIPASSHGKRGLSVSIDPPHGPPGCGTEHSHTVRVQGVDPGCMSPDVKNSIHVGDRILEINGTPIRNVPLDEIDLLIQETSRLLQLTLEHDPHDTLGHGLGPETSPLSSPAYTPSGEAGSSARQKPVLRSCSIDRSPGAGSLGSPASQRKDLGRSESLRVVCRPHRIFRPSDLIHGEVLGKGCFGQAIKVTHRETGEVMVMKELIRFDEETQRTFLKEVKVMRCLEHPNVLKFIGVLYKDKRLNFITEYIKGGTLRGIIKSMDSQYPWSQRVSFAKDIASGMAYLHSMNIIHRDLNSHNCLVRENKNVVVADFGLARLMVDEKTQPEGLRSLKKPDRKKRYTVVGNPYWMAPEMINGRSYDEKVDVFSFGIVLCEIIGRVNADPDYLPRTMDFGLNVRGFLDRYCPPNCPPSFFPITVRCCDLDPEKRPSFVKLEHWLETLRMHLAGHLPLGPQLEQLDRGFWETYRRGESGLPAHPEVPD

[9] = biological target: Calcium/calmodulin-dependent protein kinase type II subunit beta (Homo sapiens) (UniProt Q13554); experiment: Inhibition of CAMK2b (unknown origin) at 1 uM in presence of ATP relative to control; values are per cent of control
[10] = biological target: Dual specificity mitogen-activated protein kinase kinase 6 (Homo sapiens) (UniProt P52564); experiment: Inhibition of MKK6 (unknown origin) at 1 uM in presence of ATP relative to control; values are per cent of control
[11] = biological target: Serine/threonine-protein kinase pim-1 (Homo sapiens) (UniProt P11309); experiment: Inhibition of Pim-1 (unknown origin) at 1 uM in presence of ATP relative to control; values are per cent of control
Chain of Serine/threonine-protein kinase pim-1 (Homo sapiens) (P11309 whole entry, looked up): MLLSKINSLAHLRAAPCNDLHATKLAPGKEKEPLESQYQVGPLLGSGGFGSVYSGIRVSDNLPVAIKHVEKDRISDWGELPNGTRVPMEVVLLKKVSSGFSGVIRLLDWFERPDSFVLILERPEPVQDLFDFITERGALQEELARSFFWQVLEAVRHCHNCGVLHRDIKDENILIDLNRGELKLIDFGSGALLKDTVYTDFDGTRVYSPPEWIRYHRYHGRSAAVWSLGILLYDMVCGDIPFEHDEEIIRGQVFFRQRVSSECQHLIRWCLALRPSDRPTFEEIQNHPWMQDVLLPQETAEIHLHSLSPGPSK

[12] = test system: SH-4; experiment: Inhibition of cell proliferation in human SH-4 cells upto 10 umol/L incubated for 72 hrs by DAPI staining based analysis; format: functional; conditions: dose <= 10.0 µmol/L
[13] = biological target: Dual specificity tyrosine-phosphorylation-regulated kinase 2 (Homo sapiens) (UniProt Q92630); experiment: Inhibition of DYRK2 (unknown origin) at 1 uM in presence of ATP relative to control; values are per cent of control
Chain of Dual specificity tyrosine-phosphorylation-regulated kinase 2 (Homo sapiens) (Q92630 whole entry): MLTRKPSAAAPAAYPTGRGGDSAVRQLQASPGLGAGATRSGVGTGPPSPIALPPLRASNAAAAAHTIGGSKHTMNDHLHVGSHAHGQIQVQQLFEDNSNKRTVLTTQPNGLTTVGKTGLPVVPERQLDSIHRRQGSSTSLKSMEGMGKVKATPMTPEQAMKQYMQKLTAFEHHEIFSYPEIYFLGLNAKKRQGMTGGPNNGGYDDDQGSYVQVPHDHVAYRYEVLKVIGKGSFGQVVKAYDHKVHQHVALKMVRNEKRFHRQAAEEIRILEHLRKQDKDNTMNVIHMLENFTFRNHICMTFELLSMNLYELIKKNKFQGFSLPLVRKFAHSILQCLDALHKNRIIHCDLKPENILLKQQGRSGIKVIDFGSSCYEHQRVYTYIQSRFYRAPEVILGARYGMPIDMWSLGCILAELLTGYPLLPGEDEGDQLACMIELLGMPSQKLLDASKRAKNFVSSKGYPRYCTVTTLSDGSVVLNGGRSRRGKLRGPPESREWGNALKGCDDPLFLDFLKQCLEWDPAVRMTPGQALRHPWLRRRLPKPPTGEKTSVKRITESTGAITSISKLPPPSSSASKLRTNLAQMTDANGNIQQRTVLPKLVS

[14] = biological target: Serine/threonine-protein kinase BRSK1 (Homo sapiens) (UniProt Q8TDC3); experiment: Inhibition of BrSK1 (unknown origin) at 1 uM in presence of ATP relative to control; values are per cent of control
[15] = biological target: Serine/threonine-protein kinase STK11 (Homo sapiens) (UniProt Q15831); experiment: Inhibition of LKB1 (unknown origin) at 1 uM in presence of ATP relative to control; values are per cent of control
[16] = test system: HT-1376; experiment: Inhibition of cell proliferation in human HT-1376 cells upto 10 umol/L incubated for 72 hrs by DAPI staining based analysis; format: functional; conditions: dose <= 10.0 µmol/L
[17] = Cmin in adult patient with recurrent LMNA-NTRK1 rearranged colorectal cancer at 100 mg administered twice a day as powder-in-capsule or liquid formulation for 15 day and measured 10 hrs post dose by LC-MS/MS analysis; format: ADME; conditions: human, in vivo, po, read-out: Cmin
[18] = test system: MZ-CRC-1; experiment: Inhibition of cell proliferation in human MZ-CRC-1 cells upto 10 umol/L incubated for 72 hrs by DAPI staining based analysis; format: functional; conditions: dose <= 10.0 µmol/L
[19] = biological target: Ribosomal protein S6 kinase alpha-4 (Homo sapiens) (UniProt O75676); experiment: Inhibition of MSK2 (unknown origin) at 1 uM in presence of ATP relative to control; values are per cent of control
[20] = biological target: Death-associated protein kinase 3 (Homo sapiens) (UniProt O43293); experiment: Inhibition of DAPK3 (unknown origin) at 1 uM in presence of ATP relative to control; values are per cent of control
[21] = test system: CAL-62; experiment: Inhibition of cell proliferation in human CAL-62 cells upto 10 umol/L incubated for 72 hrs by DAPI staining based analysis; format: functional; conditions: dose <= 10.0 µmol/L
[22] = biological target: Serine/threonine-protein kinase PLK2 (Homo sapiens) (UniProt Q9NYY3); experiment: Inhibition of Plk2 (unknown origin) at 1 uM in presence of ATP relative to control; values are per cent of control
Chain of Serine/threonine-protein kinase PLK2 (Homo sapiens) (Q9NYY3 whole entry, looked up): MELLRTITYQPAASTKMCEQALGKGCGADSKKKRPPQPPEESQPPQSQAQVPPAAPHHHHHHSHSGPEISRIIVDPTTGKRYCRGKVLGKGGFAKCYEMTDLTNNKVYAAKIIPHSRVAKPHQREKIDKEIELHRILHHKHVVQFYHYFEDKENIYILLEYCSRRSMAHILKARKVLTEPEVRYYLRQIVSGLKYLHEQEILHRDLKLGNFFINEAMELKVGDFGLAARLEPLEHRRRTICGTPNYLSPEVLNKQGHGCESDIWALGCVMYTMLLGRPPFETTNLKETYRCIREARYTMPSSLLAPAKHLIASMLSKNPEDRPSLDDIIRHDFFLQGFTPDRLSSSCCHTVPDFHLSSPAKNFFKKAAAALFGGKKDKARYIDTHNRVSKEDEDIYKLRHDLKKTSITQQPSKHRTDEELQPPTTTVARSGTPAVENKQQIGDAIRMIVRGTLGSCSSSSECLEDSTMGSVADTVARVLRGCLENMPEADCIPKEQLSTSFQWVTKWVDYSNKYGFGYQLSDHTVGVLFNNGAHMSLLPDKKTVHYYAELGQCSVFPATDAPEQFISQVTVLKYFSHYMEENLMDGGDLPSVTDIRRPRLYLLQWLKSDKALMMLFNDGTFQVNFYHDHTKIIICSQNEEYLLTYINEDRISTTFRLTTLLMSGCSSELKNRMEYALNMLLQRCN

[23] = biological target: Vascular endothelial growth factor receptor 1 (Homo sapiens) (UniProt P17948); experiment: Inhibition of FLt1 (unknown origin) at 1 uM in presence of ATP relative to control; values are per cent of control
Chain of Vascular endothelial growth factor receptor 1 (Homo sapiens) (P17948 whole entry): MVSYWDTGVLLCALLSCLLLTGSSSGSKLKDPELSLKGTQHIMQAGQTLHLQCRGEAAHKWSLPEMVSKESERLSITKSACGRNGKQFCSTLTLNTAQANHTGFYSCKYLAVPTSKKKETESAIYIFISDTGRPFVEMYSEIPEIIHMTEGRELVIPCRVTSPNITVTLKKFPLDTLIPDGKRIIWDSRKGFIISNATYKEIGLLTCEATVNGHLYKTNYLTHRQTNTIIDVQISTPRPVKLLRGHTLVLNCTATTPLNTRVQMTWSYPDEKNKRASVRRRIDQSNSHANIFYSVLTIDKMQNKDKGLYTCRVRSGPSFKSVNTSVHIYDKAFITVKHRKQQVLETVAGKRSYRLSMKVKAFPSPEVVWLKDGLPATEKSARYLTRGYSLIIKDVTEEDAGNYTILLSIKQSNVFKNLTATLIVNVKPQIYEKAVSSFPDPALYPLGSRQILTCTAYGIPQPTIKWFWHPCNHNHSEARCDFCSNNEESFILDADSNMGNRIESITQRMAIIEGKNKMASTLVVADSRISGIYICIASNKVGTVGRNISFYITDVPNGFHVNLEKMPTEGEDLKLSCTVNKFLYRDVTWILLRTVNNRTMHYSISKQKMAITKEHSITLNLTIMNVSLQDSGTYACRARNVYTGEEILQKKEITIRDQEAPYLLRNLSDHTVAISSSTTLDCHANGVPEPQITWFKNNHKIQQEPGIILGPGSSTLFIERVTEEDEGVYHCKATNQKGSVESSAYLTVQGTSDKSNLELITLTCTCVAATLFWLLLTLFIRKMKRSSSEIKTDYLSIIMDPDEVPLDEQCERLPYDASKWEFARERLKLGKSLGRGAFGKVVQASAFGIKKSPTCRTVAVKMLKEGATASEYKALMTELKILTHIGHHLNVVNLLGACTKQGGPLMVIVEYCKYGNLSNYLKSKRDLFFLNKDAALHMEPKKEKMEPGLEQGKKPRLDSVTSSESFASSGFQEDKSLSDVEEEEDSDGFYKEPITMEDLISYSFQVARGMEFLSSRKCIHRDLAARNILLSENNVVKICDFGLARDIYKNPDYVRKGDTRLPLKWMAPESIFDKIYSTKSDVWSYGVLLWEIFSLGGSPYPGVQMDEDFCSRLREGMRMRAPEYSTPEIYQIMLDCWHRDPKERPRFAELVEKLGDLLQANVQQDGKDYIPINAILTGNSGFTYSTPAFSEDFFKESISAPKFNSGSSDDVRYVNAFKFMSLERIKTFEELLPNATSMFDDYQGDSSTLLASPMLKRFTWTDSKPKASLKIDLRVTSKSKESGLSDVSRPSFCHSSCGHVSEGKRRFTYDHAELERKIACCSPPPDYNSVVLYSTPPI

[24] = Clearance in monkey at 1 mg/kg, iv administered as 20% hydroxypropyl-beta-cyclodextrin formulation by LC-MS analysis; format: ADME, organism-based, Macaca mulatta; conditions: rhesus monkey, in vivo
[25] = biological target: Dual specificity protein kinase CLK2 (Homo sapiens) (UniProt P49760); experiment: Inhibition of CLK2 (unknown origin) at 1 uM in presence of ATP relative to control; values are per cent of control
[26] = AUC in adult patient with recurrent LMNA-NTRK1 rearranged colorectal cancer at 100 mg administered twice a day as powder-in-capsule or liquid formulation for 22 day by LC-MS/MS analysis; format: ADME; conditions: human, in vivo, po
[27] = Inhibition of human extracellular domain deleted TRKA V573M mutant expressed in mouse NIH3T3 cells assessed as reduction in TRKA phosphorylation incubated for 1 hrs by ELISA; format: cell-based; conditions: NIH3T3, 1 h
[28] = test system: T47D; experiment: Inhibition of cell proliferation in human T47D cells upto 10 umol/L incubated for 72 hrs by DAPI staining based analysis; format: functional; conditions: dose <= 10.0 µmol/L
[29] = biological target: Dual specificity mitogen-activated protein kinase kinase 1 (Homo sapiens) (UniProt Q02750); experiment: Inhibition of MEK1 (unknown origin) at 1 uM in presence of ATP relative to control; values are per cent of control
Chain of Dual specificity mitogen-activated protein kinase kinase 1 (Homo sapiens) (Q02750 whole entry): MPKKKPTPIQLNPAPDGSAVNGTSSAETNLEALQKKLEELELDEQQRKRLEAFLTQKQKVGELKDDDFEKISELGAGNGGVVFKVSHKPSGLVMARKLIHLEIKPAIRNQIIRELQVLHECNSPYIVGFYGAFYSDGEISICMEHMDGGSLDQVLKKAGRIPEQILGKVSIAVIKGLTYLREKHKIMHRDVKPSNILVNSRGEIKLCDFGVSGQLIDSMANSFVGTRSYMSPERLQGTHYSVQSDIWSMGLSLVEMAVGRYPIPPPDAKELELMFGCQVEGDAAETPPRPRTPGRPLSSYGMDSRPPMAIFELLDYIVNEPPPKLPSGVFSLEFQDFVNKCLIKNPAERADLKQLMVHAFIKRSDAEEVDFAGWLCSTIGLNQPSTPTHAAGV

[30] = biological target: Serine/threonine-protein kinase 3 (Homo sapiens) (UniProt Q13188); experiment: Inhibition of MST2 (unknown origin) at 1 uM in presence of ATP relative to control; values are per cent of control

Structure (SMILES): C[C@@H]1CCc2ncc(F)cc2[C@H]2CCCN2c2ccn3ncc(c3n2)C(=O)N1 [SELITRECTINIB]
- inhibition [1]: inactive
- residual activity [2]: 121%
- residual activity [3]: 117%
- inhibition [4]: inactive
- residual activity [5]: 103%
- concentration at 708 h [6]: 12 ng/mL
- residual activity [7]: 114%
- residual activity [8]: 85.5%
- residual activity [9]: 100%
- residual activity [10]: 100%
- residual activity [11]: 122%
- inhibition [12]: inactive
- residual activity [13]: 102%
- residual activity [14]: 108%
- residual activity [15]: 108%
- inhibition [16]: inactive
- concentration at 370 h [17]: 7.78 ng/mL
- inhibition [18]: inactive
- residual activity [19]: 115%
- residual activity [20]: 120%
- inhibition [21]: inactive
- residual activity [22]: 95%
- residual activity [23]: 101%
- clearance [24]: 23.3 mL/min/kg
- residual activity [25]: 96.5%
- AUC at 528 h [26]: 3870 ng·h/mL
- IC50 [27]: 29 nM
- inhibition [28]: inactive
- residual activity [29]: 122%
- residual activity [30]: 112%
